From patent US20250368678A1, “19-NOR-C3,3-DISUBSTITUTED C21-AZACYCLO-S[…] AND METHOD FOR USING SAME” (SHANDONG LUYE PHARMACEUTICAL CO., LTD., priority 2022, published 2025)

Legend:
[1] = biological target: T1, α1β2γ2 GABA receptors (α1β2γ2-CHO-TRex stable cell strain) (Homo sapiens, UniProt P14867+P47870); test: Whole-cell patch clamp, intrasynaptic functional activity (positive allosteric regulation of GABA-induced current); assay type: cell-based; details: patch clamp -60 mV, GABA at EC10-20, α1β2γ2-CHO-TRex cells
T1 construct: expressed in transfected cells
T1 sequence (P14867 28-456): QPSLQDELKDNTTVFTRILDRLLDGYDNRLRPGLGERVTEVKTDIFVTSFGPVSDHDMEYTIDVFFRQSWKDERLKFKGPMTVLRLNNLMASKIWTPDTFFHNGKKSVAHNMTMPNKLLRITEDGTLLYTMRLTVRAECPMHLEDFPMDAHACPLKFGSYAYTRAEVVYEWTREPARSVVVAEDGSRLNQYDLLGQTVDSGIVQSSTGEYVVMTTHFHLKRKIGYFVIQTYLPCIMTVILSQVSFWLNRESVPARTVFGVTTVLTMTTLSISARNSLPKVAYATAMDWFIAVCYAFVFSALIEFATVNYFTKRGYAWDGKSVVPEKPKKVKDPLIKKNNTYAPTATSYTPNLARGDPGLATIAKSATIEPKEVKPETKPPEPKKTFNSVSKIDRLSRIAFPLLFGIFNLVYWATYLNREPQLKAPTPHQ
T1 sequence (P47870 25-512 limits assumed): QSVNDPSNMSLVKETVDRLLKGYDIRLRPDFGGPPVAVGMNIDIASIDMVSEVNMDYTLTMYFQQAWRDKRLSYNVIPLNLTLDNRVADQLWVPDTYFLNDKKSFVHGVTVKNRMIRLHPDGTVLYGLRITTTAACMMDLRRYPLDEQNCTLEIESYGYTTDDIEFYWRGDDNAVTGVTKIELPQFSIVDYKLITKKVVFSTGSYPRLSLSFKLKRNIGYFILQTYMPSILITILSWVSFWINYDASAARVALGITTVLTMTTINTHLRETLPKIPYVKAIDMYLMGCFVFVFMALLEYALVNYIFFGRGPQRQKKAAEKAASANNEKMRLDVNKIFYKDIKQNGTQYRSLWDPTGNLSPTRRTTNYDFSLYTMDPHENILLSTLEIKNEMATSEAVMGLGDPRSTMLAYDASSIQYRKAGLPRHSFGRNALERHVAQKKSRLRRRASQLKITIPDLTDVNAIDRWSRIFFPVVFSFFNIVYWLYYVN
T1 sequence (P18507 40-475 partner): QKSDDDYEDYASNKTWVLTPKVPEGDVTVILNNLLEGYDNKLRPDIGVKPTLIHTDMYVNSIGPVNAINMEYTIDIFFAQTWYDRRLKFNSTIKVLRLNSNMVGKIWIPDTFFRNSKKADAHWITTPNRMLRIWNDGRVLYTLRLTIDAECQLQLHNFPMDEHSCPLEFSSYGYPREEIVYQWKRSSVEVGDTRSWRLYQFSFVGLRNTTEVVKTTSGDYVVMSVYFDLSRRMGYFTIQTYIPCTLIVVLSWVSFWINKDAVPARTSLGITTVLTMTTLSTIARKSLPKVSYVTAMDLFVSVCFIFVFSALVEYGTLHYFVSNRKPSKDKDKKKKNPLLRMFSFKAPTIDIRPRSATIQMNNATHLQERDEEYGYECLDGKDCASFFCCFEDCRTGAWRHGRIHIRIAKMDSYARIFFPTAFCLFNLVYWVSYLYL
Method: (§1) The α4β3δ-HEK-FlpIn-TRex stable cell strain was cultured in DMEM+10% FBS complete culture medium, with the selective antibiotics being 10 μg/mL Blasticidin, 100 µg/mL Zeocin, 100 µg/mL Hygromycin, and 0.2 μg/mL Puromycin. The α1β2γ2-CHO-TRex stable cell strain was cultured in DMEM/F12+10% FBS complete culture medium, with the selective antibiotics being 10 μg/mL Blasticidin, 100 μg/mL Zeocin, 300 μg/mL Hygromycin, and […] Puromycin.
(§2) The day before the patch clamp experiment, cells were seeded onto 12 mm polylysine-coated coverslips and then cultured in 35 mm culture dishes, and tetracycline ([…]) was added to induce the expression of GABA receptors. The extracellular fluid had the following composition (in mM): 140 NaCl, 3 KCl, 1.5 MgCl2, 2 CaCl2, 10 HEPES, and 10 Glucose. After thorough mixing, NaOH was added to adjust the pH to 7.4, and sucrose was added to adjust the osmotic pressure to 300-320 mOsm. The fluid was stored at 4° C. The electrode internal solution had the following composition (in mM): 145 KCl, 1 MgCl2, 5 EGTA, 10 HEPES, and 5 MgATP. After thorough mixing, KOH was added to adjust the pH to 7.3, and sucrose was added to adjust the osmotic pressure to 290-300 mOsm. The solution was filtered through a […] before use.
(§3) Whole-cell patch clamp recording was mainly employed in this experiment. The membrane potential was clamped at −60 mV, and receptors were activated using GABA at an EC10-20 concentration ([…]). The test compounds were dissolved in 0.1% DMSO, and perfusion was performed for 30 s prior to GABA stimulation. Finally, the positive allosteric regulating effects of the test compounds on α1β2γ2 or α4β3δ were determined.
(§4) The experimental result for each concentration was expressed as a fold increase in the GABA-induced current caused by the compound. […] At least 5 concentrations are tested to obtain a complete EC50 curve and EC50 values. All experiments were repeated on no less than 3 cells, and data processing was completed using GraphPad prism software. The dose-response curves were fitted using the Hill equation, and the half-maximal activating concentration EC50 and Emax were finally obtained.

[2] = biological target: T2, α4β3δ GABA receptors (α4β3δ-HEK-FlpIn-TRex stable cell strain) (Homo sapiens, UniProt P28472+P48169); test: Whole-cell patch clamp, extrasynaptic functional activity (positive allosteric regulation of GABA-induced current); assay type: cell-based; details: patch clamp -60 mV, GABA at EC10-20, α4β3δ-HEK-FlpIn-TRex cells
T2 construct: expressed in transfected cells
T2 sequence (P48169 36-554): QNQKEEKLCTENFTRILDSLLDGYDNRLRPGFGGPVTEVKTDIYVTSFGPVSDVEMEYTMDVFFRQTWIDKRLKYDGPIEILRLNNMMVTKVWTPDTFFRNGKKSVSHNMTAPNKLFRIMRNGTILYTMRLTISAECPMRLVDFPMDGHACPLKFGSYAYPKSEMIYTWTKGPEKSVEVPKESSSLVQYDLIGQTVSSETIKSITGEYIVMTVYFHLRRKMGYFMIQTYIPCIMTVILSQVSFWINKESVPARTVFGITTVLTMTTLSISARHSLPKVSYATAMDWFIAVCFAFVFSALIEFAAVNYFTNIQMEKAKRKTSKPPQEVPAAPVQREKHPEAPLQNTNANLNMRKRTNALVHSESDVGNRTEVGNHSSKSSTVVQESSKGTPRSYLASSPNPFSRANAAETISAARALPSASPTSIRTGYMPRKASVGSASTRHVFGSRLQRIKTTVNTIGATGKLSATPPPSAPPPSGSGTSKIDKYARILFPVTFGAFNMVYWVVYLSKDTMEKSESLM
T2 sequence (P28472 26-473): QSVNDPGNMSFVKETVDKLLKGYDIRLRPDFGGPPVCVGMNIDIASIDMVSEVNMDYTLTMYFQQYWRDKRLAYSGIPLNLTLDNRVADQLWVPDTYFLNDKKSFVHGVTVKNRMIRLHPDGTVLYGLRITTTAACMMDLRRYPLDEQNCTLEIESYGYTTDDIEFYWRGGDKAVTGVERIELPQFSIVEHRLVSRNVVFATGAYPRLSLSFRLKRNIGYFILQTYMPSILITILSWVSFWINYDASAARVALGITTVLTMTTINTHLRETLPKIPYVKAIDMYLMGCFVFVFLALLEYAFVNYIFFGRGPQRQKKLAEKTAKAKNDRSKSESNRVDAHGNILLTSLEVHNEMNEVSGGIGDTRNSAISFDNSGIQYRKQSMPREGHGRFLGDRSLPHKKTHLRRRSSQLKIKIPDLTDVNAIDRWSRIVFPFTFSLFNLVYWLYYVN
T2 sequence (O14764 25-452 partner): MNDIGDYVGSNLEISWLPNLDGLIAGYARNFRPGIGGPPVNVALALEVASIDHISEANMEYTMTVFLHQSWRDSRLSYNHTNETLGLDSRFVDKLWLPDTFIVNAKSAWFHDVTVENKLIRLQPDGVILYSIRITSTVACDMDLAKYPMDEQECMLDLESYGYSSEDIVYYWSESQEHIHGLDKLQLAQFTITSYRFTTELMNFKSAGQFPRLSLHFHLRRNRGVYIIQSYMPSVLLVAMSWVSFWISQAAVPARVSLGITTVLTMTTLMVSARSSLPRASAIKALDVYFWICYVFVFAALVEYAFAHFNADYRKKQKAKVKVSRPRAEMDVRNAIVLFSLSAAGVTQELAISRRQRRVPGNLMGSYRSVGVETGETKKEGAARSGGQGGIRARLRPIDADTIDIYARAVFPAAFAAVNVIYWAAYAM
Method: as §1, §2, §3, §4

[3] = In vitro liver microsomal stability assay, rat; assay type: in vitro ADME; details: for Remaining amount % at 60 min: Rat liver microsomes 0.5 mg/mL, NADPH; for microsomal CLint at 1 µM: read-out: CLint(mic)
Method: (§5) 1) Preparation of working solutions of test samples: The test samples were diluted with acetonitrile to 100 M.
(§6) 2) Preparation of a working solution of liver microsomes: liver microsomes were diluted with 100 mM phosphate-buffered saline to 0.56 mg/mL.
(§7) 3) Preparation of a working solution of reduced nicotinamide adenine dinucleotide (NADPH): A proper amount of NADPH was weighed out and diluted with phosphate-buffered saline to 20 mM, and an equal volume of a 60 mM MgCl2 solution was added.
(§8) 4) Preparation of a stop solution: Tolbutamide was diluted with acetonitrile to 20 ng/mL, serving as a stop solution containing an internal standard.
(§9) 1) Incubation anti-adsorption EP tubes were prepared and labeled with species, test/control sample, time points (0, 5, 10, 20, 30, 60 min, Blank60, and NCF60), etc.
(§10) 2) 2 L of test or control sample working solution, diluted with acetonitrile to 100 M, and 178 L of liver microsome working solution were added to each tube. For the Blank60 tube, 2 L of acetonitrile was added instead of a test sample. The tubes were pre-incubated in a 37° C. water bath for about 10 min, with each sample tested in triplicate.
(§11) 3) After the pre-incubation was complete, 20 L of NADPH working solution was added to each tube except for the 0 min and NCF60 tubes to start reactions, and 20 L of phosphate-buffered saline (containing 30 mM MgCl2) was added to the NCF60 tube. In the incubation system, the final concentrations of the test and control samples were 1 M, the final concentration of liver microsomes was 0.5 mg/mL, the final concentration of NADPH was 1 mM, and the final concentration of MgCl2 was 3 mM.
(§12) 4) For the 0 min sample, 600 L of stop solution was added before adding the NADPH working solution. After each sample was incubated for its respective time, 600 L of stop solution was added to stop the reaction.
(§13) 5) After the reaction was stopped, each sample was vortexed for 30 s and then centrifuged at 13,500 rpm for 10 min. 100 L of the supernatant was transferred to an EP tube, and 100 L Milli-Q water was added. The mixture was well mixed by vortexing and analyzed by LC-MS/MS.
(§14) 6) Testosterone and dextromethorphan were used as positive control samples under the same conditions to assess the stability and reliability of the system.
(§15) Parameters of the test samples, including their half-lives, intrinsic clearance rates in liver microsomes, and hepatic intrinsic clearance rates, were calculated based on the percentage of test sample remaining.

[4] = In vitro liver microsomal stability assay, human; assay type: in vitro ADME; details: for Remaining amount % at 60 min: Human liver microsomes 0.5 mg/mL, NADPH; for microsomal CLint at 1 µM: read-out: CLint(mic)
Method: as §5, §6, §7, §8, §9, §10, §11, §12, §13, §14, §15

## C[C@@]1(O)CC[C@H]2[C@H](CC[C@@H]3[C@@H]2CC[C@]2(C)[C@@H](C(=O)Cn4cnn(-c5ccc(F)cc5F)c4=O)CC[C@@H]32)C1 [Compound 25]
[1]
  EC50: 784 nM
  Emax: 692%
[2]
  EC50: 89 nM
  Emax: 542%
[3]; Rat liver microsomes
  CLint scaled at 1 µM: 104 mL/min/kg
  half-life at 1 µM: 24.1 min
  microsomal CLint at 1 µM: 58 µL/min/mg
[3]
  Remaining amount % at 60 min: 16.2%
[4]; Human liver microsomes
  CLint scaled at 1 µM: 25 mL/min/kg
  half-life at 1 µM: 49.5 min
  microsomal CLint at 1 µM: 28 µL/min/mg
[4]
  Remaining amount % at 60 min: 42%

## C[C@@]1(O)CC[C@H]2[C@H](CC[C@@H]3[C@@H]2CC[C@]2(C)[C@@H](C(=O)Cn4cnn(-c5cc(Cl)ccn5)c4=O)CC[C@@H]32)C1 [Compound 26]
[1]
  Emax: 624%
[2]
  Emax: 589%
[3]; Rat liver microsomes
  CLint scaled at 1 µM: 120 mL/min/kg
  T1/2: 20.8 min
  microsomal CLint at 1 µM: 67 µL/min/mg
[3]
  Remaining amount % at 60 min: 12.7%
[4]; Human liver microsomes
  CLint scaled at 1 µM: 18 mL/min/kg
  T1/2: 68.6 min
  microsomal CLint at 1 µM: 20 µL/min/mg
[4]
  Remaining amount % at 60 min: 53.7%

## C[C@@]1(O)CC[C@H]2[C@H](CC[C@@H]3[C@@H]2CC[C@]2(C)[C@@H](C(=O)Cn4cnn(-c5cccc(F)c5F)c4=O)CC[C@@H]32)C1 [Compound 27]
[1]
  EC50: 126 nM
  Emax: 445%
[2]
  EC50: 42 nM
  Emax: 526%
[3]; Rat liver microsomes
  CLint scaled at 1 µM: 122 mL/min/kg
  half-life at 1 µM: 20.4 min
  microsomal CLint at 1 µM: 68 µL/min/mg
[3]
  Remaining amount % at 60 min: 14.60%
[4]; Human liver microsomes
  CLint scaled at 1 µM: 14 mL/min/kg
  half-life at 1 µM: 91.2 min
  microsomal CLint at 1 µM: 15 µL/min/mg
[4]
  Remaining amount % at 60 min: 64.13%

## C[C@@]1(O)CC[C@H]2[C@H](CC[C@@H]3[C@@H]2CC[C@]2(C)[C@@H](C(=O)Cn4cnn(-c5cc(F)cc(F)c5)c4=O)CC[C@@H]32)C1 [Compound 28]
[1]
  EC50: 154 nM
[2]
  EC50: 35 nM
  Emax: 441%
[3]; Rat liver microsomes
  CLint scaled at 1 µM: 43 mL/min/kg
  half-life at 1 µM: 57.8 min
  microsomal CLint at 1 µM: 24 µL/min/mg
[3]
  Remaining amount % at 60 min: 48.8%
[4]; Human liver microsomes
  CLint scaled at 1 µM: 21 mL/min/kg
  half-life at 1 µM: 58.2 min
  microsomal CLint at 1 µM: 24 µL/min/mg
[4]
  Remaining amount % at 60 min: 61.6%

## C[C@@]1(O)CC[C@H]2[C@H](CC[C@@H]3[C@@H]2CC[C@]2(C)[C@@H](C(=O)Cn4cnn(C5CCCC5)c4=O)CC[C@@H]32)C1 [Compound 29]
[1]
  EC50: 192 nM
  Emax: 691%
[2]
  EC50: 203 nM
  Emax: 830%
[3]; Rat liver microsomes
  CLint scaled at 1 µM: 64 mL/min/kg
  half-life at 1 µM: 38.7 min
  microsomal CLint at 1 µM: 36 µL/min/mg
[3]
  Remaining amount % at 60 min: 36.8%
[4]; Human liver microsomes
  CLint scaled at 1 µM: 60 mL/min/kg
  half-life at 1 µM: 20.7 min
  microsomal CLint at 1 µM: 67 µL/min/mg
[4]
  Remaining amount % at 60 min: 45.8%

## C[C@@]1(O)CC[C@H]2[C@H](CC[C@@H]3[C@@H]2CC[C@]2(C)[C@@H](C(=O)Cn4cnn(C5CCCCC5)c4=O)CC[C@@H]32)C1 [Compound 30]
[1]
  EC50: 585 nM
  Emax: 873%
[2]
  EC50: 237 nM
  Emax: 685%
[3]; Rat liver microsomes
  CLint scaled at 1 µM: 329 mL/min/kg
  half-life at 1 µM: 7.6 min
  microsomal CLint at 1 µM: 183 µL/min/mg
[3]
  Remaining amount % at 60 min: 7.4%
[4]; Human liver microsomes
  CLint scaled at 1 µM: 91 mL/min/kg
  half-life at 1 µM: 17.5 min
  microsomal CLint at 1 µM: 79 µL/min/mg
[4]
  Remaining amount % at 60 min: 9.5%

## COCCn1ncn(CC(=O)[C@H]2CC[C@H]3[C@@H]4CC[C@@H]5C[C@](C)(O)CC[C@@H]5[C@H]4CC[C@]23C)c1=O [Compound 31]
[1]
  Emax: 735%
[2]
  Emax: 609%
[3]; Rat liver microsomes
  CLint scaled at 1 µM: 234 mL/min/kg
  half-life at 1 µM: 10.7 min
  microsomal CLint at 1 µM: 130 µL/min/mg
[3]
  Remaining amount % at 60 min: 2.1%
[4]; Human liver microsomes
  CLint scaled at 1 µM: 37 mL/min/kg
  half-life at 1 µM: 34.1 min
  microsomal CLint at 1 µM: 41 µL/min/mg
[4]
  Remaining amount % at 60 min: 28.5%

## C[C@@]1(O)CC[C@H]2[C@H](CC[C@@H]3[C@@H]2CC[C@]2(C)[C@@H](C(=O)Cn4cnn(-c5nccs5)c4=O)CC[C@@H]32)C1 [Compound 32]
[1]
  EC50: 330 nM
  Emax: 763%
[2]
  EC50: 126 nM
  Emax: 633%
[3]; Rat liver microsomes
  CLint scaled at 1 µM: 152 mL/min/kg
  half-life at 1 µM: 15.4 min
  microsomal CLint at 1 µM: 85 µL/min/mg
[3]
  Remaining amount % at 60 min: 7.7%
[4]; Human liver microsomes
  CLint scaled at 1 µM: 19 mL/min/kg
  half-life at 1 µM: 64.8 min
  microsomal CLint at 1 µM: 21 µL/min/mg
[4]
  Remaining amount % at 60 min: 66.8%

## C[C@@]1(O)CC[C@@]2(C)[C@@H](CC[C@@H]3[C@@H]2CC[C@]2(C)[C@@H](C(=O)Cn4cnn(-c5cccc(F)c5)c4=O)CC[C@@H]32)C1 [Compound 33]
[1]
  EC50: 598 nM
  Emax: 495%
[2]
  EC50: 96 nM
  Emax: 936%
[3]; Rat liver microsomes
  CLint scaled at 1 µM: 29 mL/min/kg
  half-life at 1 µM: 85.6 min
  microsomal CLint at 1 µM: 16 µL/min/mg
[3]
  Remaining amount % at 60 min: 62.2%
[4]; Human liver microsomes
  CLint scaled at 1 µM: < 6.7 mL/min/kg
  half-life at 1 µM: > 186 min
  microsomal CLint at 1 µM: < 7.5 µL/min/mg
[4]
  Remaining amount % at 60 min: 85.8%
